From patent publication US6783949B1, “Processes for determining whether a test substance contains lipases or lipase inhibitors” (Aventis Pharma Deutschland GmbH, priority 1999, dated 2004)
Like-named read-outs stand apart in the source and are kept apart here.

Key:
lipases, preferably HSL = biological target: T1, lipases, preferably HSL (Rattus norvegicus, UniProt P15304); test: Synthesized NBD-acylglycerides as substrates of lipases; assay type: biochemical
T1 sequence (P15304 1-768 isoform P15304-2): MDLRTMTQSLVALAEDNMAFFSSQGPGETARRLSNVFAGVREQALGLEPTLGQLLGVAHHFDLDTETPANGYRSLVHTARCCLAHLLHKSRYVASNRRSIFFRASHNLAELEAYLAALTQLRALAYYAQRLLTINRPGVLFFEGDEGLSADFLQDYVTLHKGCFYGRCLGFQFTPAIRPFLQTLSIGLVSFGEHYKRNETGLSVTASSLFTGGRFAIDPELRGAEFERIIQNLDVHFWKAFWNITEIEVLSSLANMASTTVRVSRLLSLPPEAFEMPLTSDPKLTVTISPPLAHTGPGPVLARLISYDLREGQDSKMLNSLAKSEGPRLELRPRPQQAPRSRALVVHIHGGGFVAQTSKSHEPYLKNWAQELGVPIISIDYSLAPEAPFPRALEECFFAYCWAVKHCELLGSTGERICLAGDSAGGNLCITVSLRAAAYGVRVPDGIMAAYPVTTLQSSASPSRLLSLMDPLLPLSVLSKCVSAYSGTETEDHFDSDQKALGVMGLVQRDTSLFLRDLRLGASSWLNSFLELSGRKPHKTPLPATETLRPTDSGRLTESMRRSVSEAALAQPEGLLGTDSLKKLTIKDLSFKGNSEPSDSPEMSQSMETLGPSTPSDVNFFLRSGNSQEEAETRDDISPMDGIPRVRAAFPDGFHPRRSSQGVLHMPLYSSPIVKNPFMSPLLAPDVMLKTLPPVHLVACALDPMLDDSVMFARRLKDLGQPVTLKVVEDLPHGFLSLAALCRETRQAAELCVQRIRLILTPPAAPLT

[1] = Substrate stability towards detergents and solvents (extinction at 550 nm); assay type: physicochemical; conditions: for Absorption at 550 nm: NAG 0.05 mg/ml, 37° C., 180 min
HSL = biological target: T2, HSL (Rattus norvegicus, UniProt P15304); test: Indirect NAG assay (extinction increase at 481 nm); assay type: biochemical; conditions: for Absorption at 481 nm: HSL 20 μg, 60 min, NAG 0.05 mg/ml
T2 construct: The partially purified HSL can be stored at −70° C. for 4 to 6 weeks; from tissue; host or cells: rat epididymal fat cells (male Wistar rats)
T2 sequence (P15304 1-768 isoform P15304-2): T1 sequence (P15304 1-768 isoform P15304-2)
Experimental: A typical reaction is carried out at 30° C. for 60 min, for example in 1.5 ml Eppendorf vessels or 96-hole plates. […] 180 μl of the substrate solution (20 μg/ml of phosphatidylcholine, 10 μg/ml of phosphatidylinositol, 50 μg/ml of NAG in assay buffer) are added. After a preincubation for 15 min at 30° C., 20 μl of HSL in assay buffer are pipetted in and the extinction is immediately measured (see above) at 481 nm in a cuvette photometer (0.5 ml cuvette) or microtiter plate reader. After a certain incubation time, which is variable and depends on the chosen enzyme concentration and can be between 2 and 240 minutes, in this case incubation at 30° C. for 60 min, the extinction is measured again. The increase in the extinction in the yellow region, in this case at 481 nm, is a measure of the enzyme activity.
Isolated rat fat cells are obtained from epididymal fatty tissue from untreated male rats (Wistar, 220-250 g) by collagenase treatment according to published processes. The fat cells from 10 rats are washed three times by flotation with 50 ml each of homogenization buffer ([…], pH 7.4, 0.25 M sucrose, 1 mM ethylenediamine-N,N,N′,N′-tetraacetic acid (EDTA), 1 mM dithiothreitol (DTT), 10 μg/ml of leupeptin, 10 μg/ml of antipain, 20 μg/ml of pepstatin) and finally taken up in 10 ml of homogenization buffer. The fat cells are homogenized in a Teflon-in-glass homogenizer (Braun-Melsungen) by 10 strokes at 1500 rpm and 15° C. The homogenizate is centrifuged (Sorvall SM24 tubes, 5000 rpm, 10 min, 4° C.). The […] between the overlying fatty layer and the pellet is removed and the centrifugation is repeated. The […] resulting from this is centrifuged again (Sorvall SM24 tubes, 20,000 rpm, 45 min, 4° C.). […] After incubation for 60 min at 4° C. (shake at intervals of 15 min), the batch is centrifuged (Sorvall SM24 tubes, 3000 rpm, 10 min, 4° C.). The supernatant is brought to pH 5.2 by addition of glacial acetic acid and incubated at 4° C. for 30 min. […] The suspension is dialyzed overnight at 4° C. against 25 mM TRIS/HCl, pH 7.4, 50% glycerol, 1 mM DTT, and 10 μg/ml of leupeptin, pepstatin, and antipain and then applied to a hydroxylapatite column (0.1 g per 1 ml of suspension, equilibrated with 10 mM potassium phosphate, pH 7.0, 30% glycerol, 1 mM DTT). The column is washed with four volumes of equilibration buffer at a flow rate of 20 to 30 ml/h. The HSL is eluted with a volume of equilibration buffer which contains 0.5 M potassium phosphate, then dialyzed (see above) and concentrated 5 to 10 times by ultrafiltration (Amicon Diaflo PM 10 filter) at 4° C. The partially purified HSL can be stored at −70° C. for 4 to 6 weeks.
6 mg of phosphatidylcholine and 6 mg of phosphatidylinositol are dissolved in 1 ml of chloroform each. 10 mg of NAG are dissolved in 1 ml of chloroform. […] The chloroform (225 μl total volume) is completely removed by overblowing with a stream of N2. The dried substrate can be stored at 4° C. for up to three days. For the preparation of the phospholipid vesicles/micelles having intercalated NAG (on the test day), the dried substrate is taken up in 20 ml of assay buffer (25 mM TRIS/HCl, pH 7.4; 150 mM NaCl) and two ultrasonic treatments with an ultrasonic probe (Branson Sonifier type 11, standard microtip): 1st treatment setting 2, 2×1 min, in between in each case 1 min on ice; 2nd treatment setting 4, 2×1 min, in between in each case 1 min on ice. […] Before use as a substrate (within the next 2 h), the solution is additionally incubated on ice for 15 min.
The assay is carried out at 30° C. for 60 min in 1.5 ml Eppendorf vessels or 96-hole plates.

Compound	Activity as substrate of lipases (lipases, preferably HSL)	Absorption at 550 nm ([1]; agent 0.05 %)	Absorption at 550 nm ([1]; agent 0.1 %)	Absorption at 550 nm ([1]; agent 0.2 %)	Absorption at 550 nm ([1]; agent 0.5 %)	Absorption at 550 nm ([1]; agent 1 %)	Absorption at 550 nm ([1]; agent 2 %)	Absorption at 550 nm ([1]; agent 5 %)	Absorption at 550 nm ([1]; agent 10 %)	Effect on the HSL activity (HSL)	further results
2-Hydroxy-3-[12-(7-nitrobenzo[1,2,5]oxadiazol-4-ylamino)-odecanoyloxy]propyl hexadecanoate [Compound (6)]	decrease in activity	–	–	–	–	–	–	–	–	–	–
O=C(CCCCCCCCCCCNc1ccc([N+](=O)[O-])c2nonc12)OC[C@@H](O)CO [(3a), (S)-2,3-Dihydroxypropyl 12-(7-nitrobenzo[1,2,5]oxadiazol-4-ylamino) dodecanoate]	identical biological activity	–	–	–	–	–	–	–	–	–	–
O=C(CCCCCCCCCCCNc1ccc([N+](=O)[O-])c2nonc12)OC[C@H](O)CO [Compound (3b), (R)-2,3-dihydroxypropyl 12-(7-nitrobenzo[1,2,5]oxadiazol-4-ylamino)dodecanoate]	identical biological activity	–	–	–	–	–	–	–	–	–	–
CC(=O)OCC(COC(=O)CCCCCCCCCCCNc1ccc([N+](=O)[O-])c2nonc12)OC(C)=O (stereo not drawn) [Compound (4), 2-Acetoxy-3-[12-(7-nitrobenzo[1,2,5]oxadiazol-4-ylamino)-dodecanoyloxy]propyl acetate]	decrease in activity	–	–	–	–	–	–	–	–	–	–
CN(C)C=O [DMF, N,N-Dimethylformamide]	–	3121 ± 294 arb. units	2655 ± 308 arb. units	1952 ± 299 arb. units	1234 ± 234 arb. units	654 ± 112 arb. units	251 ± 82 arb. units	105 ± 42 arb. units	38 ± 10 arb. units	significant loss in activity	NAG released from the phospholipid/vesicle structures ([1]; 1% agent): over 80%
C[S+](C)[O-] [DMSO, Dimethyl sulfoxide]	–	3003 ± 259 arb. units	3199 ± 302 arb. units	2984 ± 273 arb. units	3055 ± 289 arb. units	2845 ± 254 arb. units	2317 ± 266 arb. units	1432 ± 187 arb. units	372 ± 51 arb. units	–	Decrease of the extinction (amount of substrate) ([1]; 1% agent): 10%; Reduction of the enzyme activity (HSL; 0.5% agent): 10%; Decrease in the enzyme activity (arithmetically) (HSL; 1% agent, corrected for substrate dissolution): 20%; Absorption at 481 nm (HSL; agent 0.05 %): 3423 ± 286 arb. units; Absorption at 481 nm (HSL; agent 0.1 %): 3320 ± 319 arb. units; Absorption at 481 nm (HSL; agent 0.2 %): 3301 ± 276 arb. units; Absorption at 481 nm (HSL; agent 0.5 %): 3199 ± 235 arb. units; Absorption at 481 nm (HSL; agent 1 %): 3156 ± 196 arb. units; Absorption at 481 nm (HSL; agent 2 %): 1488 ± 213 arb. units; Absorption at 481 nm (HSL; agent 5 %): 945 ± 169 arb. units; Absorption at 481 nm (HSL; agent 10 %): 272 ± 42 arb. units; Reduction of the amount of released NBD-FA (HSL; up to 1% agent): approximately 10%
CCO [Ethanol]	–	3147 ± 288 arb. units	3056 ± 213 arb. units	3097 ± 253 arb. units	2995 ± 231 arb. units	2834 ± 256 arb. units	2510 ± 194 arb. units	1935 ± 163 arb. units	873 ± 103 arb. units	–	Absorption at 481 nm (HSL; agent 0.05 %): 3776 ± 253 arb. units; Absorption at 481 nm (HSL; agent 0.1 %): 4093 ± 387 arb. units; Absorption at 481 nm (HSL; agent 0.2 %): 4894 ± 325 arb. units; Absorption at 481 nm (HSL; agent 0.5 %): 4231 ± 296 arb. units; Absorption at 481 nm (HSL; agent 1 %): 3541 ± 294 arb. units; Absorption at 481 nm (HSL; agent 2 %): 2143 ± 215 arb. units; Absorption at 481 nm (HSL; agent 5 %): 1327 ± 143 arb. units; Absorption at 481 nm (HSL; agent 10 %): 423 ± 55 arb. units; Effect on the HSL activity (HSL; between 0.1 and 1% agent): increase in the HSL activity
CO [Methanol]	–	3056 ± 243 arb. units	3102 ± 276 arb. units	2945 ± 241 arb. units	2683 ± 210 arb. units	2534 ± 191 arb. units	1985 ± 165 arb. units	1438 ± 121 arb. units	475 ± 92 arb. units	increase in the HSL activity	–
CCCCCCCCCCCCOS(=O)(=O)[O-].[Na+] [SDS, Sodium dodecyl sulfate]	–	3063 ± 288 arb. units	2935 ± 254 arb. units	2769 ± 275 arb. units	2506 ± 301 arb. units	2296 ± 252 arb. units	1413 ± 178 arb. units	603 ± 89 arb. units	102 ± 12 arb. units	–	–
CC(C)=O [acetone]	–	–	–	–	–	–	–	–	–	increase in the HSL activity	–
Triton ® X-100 [TX-100]	–	3166 ± 308 arb. units	3247 ± 253 arb. units	3119 ± 277 arb. units	2954 ± 248 arb. units	2154 ± 199 arb. units	956 ± 101 arb. units	489 ± 77 arb. units	167 ± 45 arb. units	increase in the HSL activity	–
